The values below come from patent publication US20040044226A1, “Estrogen receptor modulators” (priority 2003, published 2004).

The assay concerns MCF-7 cells. The assay can be described thus: MCF-7 Estrogen Dependent Proliferation Assay. It is filed as cell-based. Conditions: Homo sapiens, MCF7, estradiol added to Estrogen Depleted Media (EDM), read-out: EC50 of stimulation of growth of MCF-7 cells. The text has this:
MCF-7 Estrogen Dependent Proliferation Assay MCF-7 cells (ATCC #HTUB-22) are human mammary gland adenocarcinoma cells that require estrogen for growth. The growth media (GM) for the MCF-7 cells is Minimum Essential Media (without phenol red) supplemented with fetal bovine serum(FBS) to 10%. The FBS serves as the sole source of estrogen and this GM supports the full growth of the cells and is used for the routine growth of the cell cultures. When MCF-7 cells are placed in a media in which 10% Charcoal-Dextran treated fetal bovine serum (CD-FBS) is substituted for FBS, the cells will cease to divide but will remain viable. […] The addition of estradiol to EDM stimulates the growth of the MCF-7 cells in a dose dependent manner with an EC50 of […]. Growing MCF-7 cells are washed several times with EDM and the cultures then maintained in EDM for a minimum of 6 days in order to deplete the cells of endogenous estrogen. On day 0 (at the start of the assay), these estrogen depleted cells are plated into 96-well cell culture plates at a density of 1000 cells/well in EDM in a volume of 180 ul/well. […] At this point, the culture supernatants are aspirated, the cells washed 2× with PBS, the wash solution aspirated and the protein content of each well determined. Each drug dilution is evaluated on a minimum of 5 wells and the range of dilution of the test compounds in the assay is 0.001 nM to 1000 nM. […]

Each structure is given as a SMILES string.

Consider `C[C@]12CC[C@@H]3c4ccc(O)cc4CC[C@H]3[C@@H]1CC[C@@H]2O` [estradiol], for which the EC50 was determined as 2 pM.
